US10221197B2, “Phosphatidylinositol 3-kinase inhibitors” (Gilead Sciences, Inc., priority 2014, dated 2019)
Where two headings read alike, the source gives them in different places.

How the values were obtained:
[1] = molecular target: PI3Kβ (Homo sapiens (Human), UniProt P42338); assay: TR-FRET enzymatic assay of PI3K isoforms (PI3Kβ); format: biochemical; details: for IC50: TR-FRET, 2×Km ATP, 2 μM PIP2, incubated for 30 minutes at 25° C., read-out: β IC50; for PI3Kγ/PI3Kβ ratio: ratio of IC50 values, selectivity for PI3Kβ over PI3Kγ
PI3Kβ, sequence (P42338 whole entry, canonical isoform): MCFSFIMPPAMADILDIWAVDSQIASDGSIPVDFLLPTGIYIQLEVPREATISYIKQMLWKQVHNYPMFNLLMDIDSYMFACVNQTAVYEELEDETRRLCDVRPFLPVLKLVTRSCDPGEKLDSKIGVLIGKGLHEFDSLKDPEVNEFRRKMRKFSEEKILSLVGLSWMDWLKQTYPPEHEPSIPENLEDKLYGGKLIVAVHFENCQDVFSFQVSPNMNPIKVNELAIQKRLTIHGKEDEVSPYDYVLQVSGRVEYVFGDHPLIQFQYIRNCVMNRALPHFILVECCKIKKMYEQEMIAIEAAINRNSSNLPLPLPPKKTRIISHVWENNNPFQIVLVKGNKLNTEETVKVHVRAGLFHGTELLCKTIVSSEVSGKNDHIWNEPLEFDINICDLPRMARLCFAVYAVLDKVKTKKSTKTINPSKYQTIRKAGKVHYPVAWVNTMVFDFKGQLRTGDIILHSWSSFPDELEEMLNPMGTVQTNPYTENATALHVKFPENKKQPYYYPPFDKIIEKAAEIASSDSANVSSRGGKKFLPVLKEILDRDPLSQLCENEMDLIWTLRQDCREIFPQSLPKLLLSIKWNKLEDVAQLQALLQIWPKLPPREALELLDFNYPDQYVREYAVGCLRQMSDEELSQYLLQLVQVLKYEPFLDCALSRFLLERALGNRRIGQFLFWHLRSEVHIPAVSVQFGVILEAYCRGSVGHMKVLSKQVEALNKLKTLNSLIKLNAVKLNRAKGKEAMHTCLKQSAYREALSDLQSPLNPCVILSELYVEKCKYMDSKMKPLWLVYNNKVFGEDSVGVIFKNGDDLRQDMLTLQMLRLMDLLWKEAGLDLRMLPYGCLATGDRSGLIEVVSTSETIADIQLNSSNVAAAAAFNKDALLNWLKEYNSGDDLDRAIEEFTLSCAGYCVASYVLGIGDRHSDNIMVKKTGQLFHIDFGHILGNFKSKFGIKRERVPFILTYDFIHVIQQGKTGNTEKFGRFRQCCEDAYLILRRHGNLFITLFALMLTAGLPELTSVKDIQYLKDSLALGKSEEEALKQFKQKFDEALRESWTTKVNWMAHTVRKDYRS
PI3Kβ, sequence (P27986 whole entry partner, canonical isoform): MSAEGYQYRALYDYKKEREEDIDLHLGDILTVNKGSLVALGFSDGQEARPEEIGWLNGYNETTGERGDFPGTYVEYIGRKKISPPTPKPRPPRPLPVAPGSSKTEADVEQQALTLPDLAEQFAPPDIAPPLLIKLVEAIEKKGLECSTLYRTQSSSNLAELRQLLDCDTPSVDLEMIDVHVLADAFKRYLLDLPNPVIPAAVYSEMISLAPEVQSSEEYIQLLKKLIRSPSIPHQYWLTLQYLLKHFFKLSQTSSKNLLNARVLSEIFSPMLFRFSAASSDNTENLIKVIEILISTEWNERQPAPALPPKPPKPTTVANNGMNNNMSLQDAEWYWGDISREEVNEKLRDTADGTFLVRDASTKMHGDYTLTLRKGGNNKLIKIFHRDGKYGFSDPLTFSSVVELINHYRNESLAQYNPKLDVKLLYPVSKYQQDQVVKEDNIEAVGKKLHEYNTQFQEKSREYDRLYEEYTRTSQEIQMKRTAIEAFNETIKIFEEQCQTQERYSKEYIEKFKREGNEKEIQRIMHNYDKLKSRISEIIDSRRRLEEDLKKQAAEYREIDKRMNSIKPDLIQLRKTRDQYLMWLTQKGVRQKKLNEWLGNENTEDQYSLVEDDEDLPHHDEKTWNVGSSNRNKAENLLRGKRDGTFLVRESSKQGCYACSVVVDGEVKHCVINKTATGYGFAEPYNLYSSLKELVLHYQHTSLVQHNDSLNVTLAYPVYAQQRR
Experimental: (§1) The compounds of formula (I) were characterized for their enzymatic activity against the PI3K isoforms. Certain compounds of the present application, including certain compounds of formula (II) and (III) were also characterized for their enzymatic activity against PI3K isoforms. The activities were measured using a time-resolved fluorescence resonance energy transfer (TR-FRET) assay.

[2] = molecular target: PI3Kγ (Homo sapiens (Human), UniProt P48736); assay: TR-FRET enzymatic assay of PI3K isoforms (PI3Kγ); format: biochemical; details: read-out: γ IC50
PI3Kγ, sequence (P48736 whole entry, canonical isoform): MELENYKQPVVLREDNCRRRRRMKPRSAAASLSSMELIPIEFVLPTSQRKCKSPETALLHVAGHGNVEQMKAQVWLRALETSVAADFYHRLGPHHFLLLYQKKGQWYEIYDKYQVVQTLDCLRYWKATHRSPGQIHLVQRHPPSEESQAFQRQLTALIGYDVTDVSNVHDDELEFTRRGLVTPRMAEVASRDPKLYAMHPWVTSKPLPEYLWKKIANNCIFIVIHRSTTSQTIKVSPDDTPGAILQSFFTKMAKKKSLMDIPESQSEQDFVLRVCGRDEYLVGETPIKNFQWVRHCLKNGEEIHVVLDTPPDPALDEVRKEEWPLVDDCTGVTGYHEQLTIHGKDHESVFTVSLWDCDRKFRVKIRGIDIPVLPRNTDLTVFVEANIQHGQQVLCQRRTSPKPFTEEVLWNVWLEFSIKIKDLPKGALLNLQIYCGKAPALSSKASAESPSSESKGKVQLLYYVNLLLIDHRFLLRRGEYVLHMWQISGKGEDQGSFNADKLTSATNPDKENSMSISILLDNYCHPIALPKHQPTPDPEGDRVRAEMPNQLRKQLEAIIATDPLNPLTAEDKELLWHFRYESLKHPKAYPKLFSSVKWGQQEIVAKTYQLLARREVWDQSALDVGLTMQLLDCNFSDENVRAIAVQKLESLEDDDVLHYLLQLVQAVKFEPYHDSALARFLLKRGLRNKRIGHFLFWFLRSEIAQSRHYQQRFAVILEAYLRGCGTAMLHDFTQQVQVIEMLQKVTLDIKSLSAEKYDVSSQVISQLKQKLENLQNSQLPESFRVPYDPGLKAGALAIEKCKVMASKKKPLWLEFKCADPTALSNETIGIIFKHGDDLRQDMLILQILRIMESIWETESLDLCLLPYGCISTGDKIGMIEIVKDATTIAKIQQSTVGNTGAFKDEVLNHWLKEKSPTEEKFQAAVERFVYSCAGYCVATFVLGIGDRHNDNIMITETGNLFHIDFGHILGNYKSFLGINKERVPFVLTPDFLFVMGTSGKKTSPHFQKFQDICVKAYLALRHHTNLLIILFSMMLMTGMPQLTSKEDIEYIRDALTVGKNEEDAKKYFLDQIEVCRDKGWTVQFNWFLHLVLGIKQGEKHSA
PI3Kγ, sequence (Q8WYR1 whole entry partner, canonical isoform): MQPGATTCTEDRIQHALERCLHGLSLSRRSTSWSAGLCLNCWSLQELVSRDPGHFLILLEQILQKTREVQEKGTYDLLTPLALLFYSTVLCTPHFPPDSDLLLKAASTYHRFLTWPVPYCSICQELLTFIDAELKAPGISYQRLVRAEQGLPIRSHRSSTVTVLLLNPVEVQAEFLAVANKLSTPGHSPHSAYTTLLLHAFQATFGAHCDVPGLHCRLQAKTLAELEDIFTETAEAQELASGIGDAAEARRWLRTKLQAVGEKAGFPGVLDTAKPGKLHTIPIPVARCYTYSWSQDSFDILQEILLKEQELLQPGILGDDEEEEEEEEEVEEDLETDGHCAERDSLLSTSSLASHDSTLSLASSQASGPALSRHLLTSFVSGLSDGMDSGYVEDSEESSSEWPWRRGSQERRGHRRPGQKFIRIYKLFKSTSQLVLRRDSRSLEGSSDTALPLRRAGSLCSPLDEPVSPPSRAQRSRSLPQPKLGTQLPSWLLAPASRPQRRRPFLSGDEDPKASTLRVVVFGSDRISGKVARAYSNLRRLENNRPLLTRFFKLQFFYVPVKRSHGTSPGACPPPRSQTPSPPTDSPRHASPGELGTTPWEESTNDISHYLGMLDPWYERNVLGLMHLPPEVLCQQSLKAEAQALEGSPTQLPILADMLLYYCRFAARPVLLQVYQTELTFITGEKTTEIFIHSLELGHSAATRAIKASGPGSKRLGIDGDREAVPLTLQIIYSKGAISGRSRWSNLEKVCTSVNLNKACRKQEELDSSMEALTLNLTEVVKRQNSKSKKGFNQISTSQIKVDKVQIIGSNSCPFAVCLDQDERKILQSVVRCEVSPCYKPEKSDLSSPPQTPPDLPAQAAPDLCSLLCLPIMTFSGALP
Experimental: as §1

[3] = TR-FRET, 2×Km ATP, 2 μM PIP2, PI3Kγ at 2 nM, incubated for 30 minutes at 25° C.

Compound	IC50 [1] [nM]	IC50 [2, 3] [nM]	IC50 [2] [nM]	PI3Kγ/PI3Kβ ratio [1]	PI3Kγ/PI3Kβ ratio ([1]; listed as (S)-2,4-diamino-6-(1-(5-chloro-4-oxo-3-phenyl-3,4-dihydroquinazolin-2-yl)ethyl))
Cc1nc(N)nc(N[C@H](c2nc3c(Cl)ccc(Cl)c3c(=O)n2-c2cccc(C(N)=O)c2)C2CC2)c1C#N [Compound 13, (S)-3-(2-(((2-amino-5-cyano-6-methylpyrimidin-4-yl)amino)(cyclopropyl)methyl)-5,8-dichloro-4-oxoquinazolin-3(4H)-yl)benzamide]	7	510	–	–	–
CCC[C@H](Nc1nc(N)nc(N)c1C#N)c1nc2c(Cl)ccc(Cl)c2c(=O)n1-c1cccc(C(N)=O)c1 [Compound 20, (S)-3-(5,8-dichloro-2-(1-((2,6-diamino-5-cyanopyrimidin-4-yl)amino)butyl)-4-oxoquinazolin-3(4H)-yl)benzamide]	11	1400	–	–	–
C[C@H](Nc1nc(N)nc(N)c1C#N)c1nc2c(Cl)cc(F)cc2c(=O)n1-c1cccc(C(N)=O)c1 [Compound 29]	8	440	–	–	–
CCNC(=O)Nc1cccc(-n2c([C@@H](Nc3ncnc(N)c3C#N)[C@@H](C)CC)nc3cccc(Cl)c3c2=O)c1 [Compound 42, 1-(3-(2-((1S,2S)-1-((6-amino-5-cyanopyrimidin-4-yl)amino)-2-methylbutyl)-5-chloro-4-oxoquinazolin-3(4H)-yl)phenyl)-3-ethylurea]	170	> 10000	–	–	–
CCNC(=O)Nc1cccc(-n2c([C@@H](C)Nc3ncnc(N)c3C#N)nc3cccc(Cl)c3c2=O)c1 [Compound 44, (R)-1-(3-(2-(1-((6-amino-5-cyanopyrimidin-4-yl)amino)ethyl)-5-chloro-4-oxoquinazolin-3(4H)-yl)phenyl)-3-ethylurea]	320	> 10000	–	–	–
CCNC(=O)Nc1cccc(-n2c([C@H](C)Nc3ncnc(N)c3C#N)nc3cccc(C(F)(F)F)c3c2=O)c1 [Compound 51, (S)-1-(3-(2-(1-((6-amino-5-cyanopyrimidin-4-yl)amino)ethyl)-4-oxo-5-(trifluoromethyl)quinazolin-3(4H)-yl)phenyl)-3-ethylurea]	67	–	–	–	–
CCNC(=O)Nc1cccc(-n2c([C@H](C)Nc3ncnn4ccnc34)nc3cccc(Cl)c3c2=O)c1 [Compound 71, (S)-1-(3-(5-chloro-2-(1-(imidazo[2,1-f][1,2,4]triazin-4-ylamino)ethyl)-4-oxoquinazolin-3(4H)-yl)phenyl)-3-ethylurea]	29	2000	–	–	–

Second part, the compound after the results:

IC50 [1] [nM]	IC50 [2, 3] [nM]	IC50 [2] [nM]	PI3Kγ/PI3Kβ ratio [1]	PI3Kγ/PI3Kβ ratio ([1]; listed as (S)-2,4-diamino-6-(1-(5-chloro-4-oxo-3-phenyl-3,4-dihydroquinazolin-2-yl)ethyl))	Compound
5	3400	–	–	–	CCNC(=O)Nc1cccc(-n2c([C@H](C)Nc3ncnc(N)c3C#N)nc3cccc(Cl)c3c2=O)c1 [Compound 90, (S)-1-(3-(2-(1-((6-amino-5-cyanopyrimidin-4-yl)amino)ethyl)-5-chloro-4-oxoquinazolin-3(4H)-yl)phenyl)-3-ethylurea]
3	800	–	–	–	C[C@H](Nc1ncnc(N)c1C#N)c1nc2cccc(Cl)c2c(=O)n1-c1cccc(NC(=O)Nc2ccc(F)cc2F)c1 [Compound 105, (S)-1-(3-(2-(1-((6-amino-5-cyanopyrimidin-4-yl)amino)ethyl)-5-chloro-4-oxoquinazolin-3(4H)-yl)phenyl)-3-(2,4-difluorophenyl)urea]
24	–	> 10000	–	–	N#Cc1c(N)ncnc1N[C@@H](COCc1ccccc1)c1nc2cccc(Cl)c2c(=O)n1-c1cccc(NC(=O)NCCCO)c1 [Compound 130, (R)-1-(3-(2-(1-((6-amino-5-cyanopyrimidin-4-yl)amino)-2-(benzyloxy)ethyl)-5-chloro-4-oxoquinazolin-3(4H)-yl)phenyl)-3-(3-hydroxypropyl)urea]
–	–	–	0.6	less than 1	C[C@H](Nc1nc(N)nc(N)c1C#N)c1nc2cccc(Cl)c2c(=O)n1-c1ccccc1 [Compound X, (S)-2,4-diamino-6-((1-(5-chloro-4-oxo-3-phenyl-3,4-dihydroquinazolin-2-yl)ethyl)amino)pyrimidine-5-carbonitrile, reference compound]
